Assay results from patent publication US11059815B2, “Synthesis of small molecule histone deacetylase 6 degraders, compounds formed thereby, and pharmaceutical compositions containing them” (Wisconsin Alumni Research Foundation, priority 2018, dated 2021).
“Also recorded” adds a separate entry of the source.

Target: T1, HDAC6 (Homo sapiens, UniProt Q9UBN7)
T1 construct: endogenous in cells; host or cells: MM1S (ATCC CRL-2974)
T1 sequence (Q9UBN7 1-1215): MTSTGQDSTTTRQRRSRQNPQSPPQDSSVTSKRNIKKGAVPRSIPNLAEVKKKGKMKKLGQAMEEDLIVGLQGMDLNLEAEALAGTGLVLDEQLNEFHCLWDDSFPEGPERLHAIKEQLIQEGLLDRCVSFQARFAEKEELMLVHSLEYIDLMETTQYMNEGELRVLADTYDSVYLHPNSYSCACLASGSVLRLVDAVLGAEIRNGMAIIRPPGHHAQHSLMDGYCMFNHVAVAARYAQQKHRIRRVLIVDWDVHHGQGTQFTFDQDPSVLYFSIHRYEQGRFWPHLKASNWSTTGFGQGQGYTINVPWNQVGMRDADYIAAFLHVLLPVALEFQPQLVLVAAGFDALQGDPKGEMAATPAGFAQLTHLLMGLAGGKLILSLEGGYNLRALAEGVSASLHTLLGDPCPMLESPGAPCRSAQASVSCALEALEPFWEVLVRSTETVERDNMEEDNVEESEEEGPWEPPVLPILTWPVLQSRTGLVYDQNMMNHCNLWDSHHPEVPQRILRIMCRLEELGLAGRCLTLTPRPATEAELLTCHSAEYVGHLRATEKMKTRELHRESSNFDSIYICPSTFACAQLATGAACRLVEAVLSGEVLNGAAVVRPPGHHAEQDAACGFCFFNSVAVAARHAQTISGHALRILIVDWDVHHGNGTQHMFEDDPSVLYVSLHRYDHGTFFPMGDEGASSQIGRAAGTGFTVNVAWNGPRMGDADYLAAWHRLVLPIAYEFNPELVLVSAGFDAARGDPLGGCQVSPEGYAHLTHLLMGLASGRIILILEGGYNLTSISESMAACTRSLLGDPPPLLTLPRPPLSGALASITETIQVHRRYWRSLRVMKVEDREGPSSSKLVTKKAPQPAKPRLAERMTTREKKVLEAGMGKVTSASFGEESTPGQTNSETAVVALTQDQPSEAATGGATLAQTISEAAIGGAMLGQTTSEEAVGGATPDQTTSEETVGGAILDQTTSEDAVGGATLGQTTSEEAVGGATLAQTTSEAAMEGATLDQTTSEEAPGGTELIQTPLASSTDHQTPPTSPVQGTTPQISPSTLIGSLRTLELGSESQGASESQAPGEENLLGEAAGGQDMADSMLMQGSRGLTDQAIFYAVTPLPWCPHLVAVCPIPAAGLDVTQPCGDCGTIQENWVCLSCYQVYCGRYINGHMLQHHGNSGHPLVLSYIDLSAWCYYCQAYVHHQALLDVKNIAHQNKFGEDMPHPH
Assay: Western blot of HDAC6 in MM1S cells
Assay type: cell-based
Details: for HDAC6 degradation activity of negative controls by western blot: data not shown
Procedure: FIGS. 10A and 10B are western blot analysis of MM1S cells treated with selected candidates from C4-lined series (FIG. 10A) and C5-lined series (FIG. 10B) for 6 h.
FIGS. 12A, 12B, and 12C are a series of western blots showing that degrader 12d selectively promotes HDAC6 degradation in MM1S cells.
FIGS. 13A and 13B are western blot analysis of MM1S cells with pre-treatment of E3 ligase ligand pomalidomide, HDAC6 inhibitor Next-A or NAE inhibitor MLN 4924 (FIG. 13A) or pre-treatment of proteasome inhibitor MG132 or Bortezomib (FIG. 13B) or vehicle (DMSO) for 1 h and it is followed by the treatment of 100 nM 2d or vehicle (DMSO) for 6 h.
FIG. 16 is a western blot of selected candidate compounds having longer linkers. MM1S cells were treated with 100 nM degraders for 6 hours and analyzed by western blot.
See FIG. 10A and FIG. 10B to confirm the ELISA results. Class II HDAC4 was selected for comparison. For selected compounds from C4- or C5-linked series, all of them presented maximal effects at 100 nM and degraded significant amount of HDAC6 at 10 nM. […] The results from Western blot are consistent with the screening results by ELISA.
To evaluate the activity and selectivity of 12d, a full dose response experiment was performed with compound concentrations ranging from 0.3 nM to 10 μM in MM1S cells (FIG. 12A) for several HDACs, IKZFs, and Ac-tubulin. […] Degrader 12d reduced HDAC6 protein content at as low as 3 nM and achieved maximal effects around 30 nM. […] See Douglass et al. 2013, supra. The degradation of IKZFs started from 30 nM and was dose-dependent. It is interesting to see the more efficient degradation of HDAC6, which requires the formation of ternary complex, than that of IKZFs, which only requires the formation of binary complex. In addition to the distinct mechanism, the different turnover rates of HDAC6 and IKZFs may also contribute to the observed results. The acetylated tubulin level was also dose-dependent. At higher concentrations (3 μM and 10 μM), tubulin acetylation was not […] in response to recovered HDAC6 expression by “hook effect”. The elevated tubulin acetylation at higher concentrations was likely due to the combination of HDAC6 degradation and HDAC6 inhibition.
To probe the efficiency of 12d, MM1S was treated with 100 nM 12d and the change of HDAC6 protein level was monitored by time. The HDAC6 degradation started around 1 h and reached maximal degradation effect at 4 h. The degradation of IKZFs was only observed after 4 h. Meanwhile, HDAC1 was not affected and the acetylation of tubulin was accumulated by time. To study the re-synthesis rate of HDAC6 after degradation, “wash-out” experiments were performed (data not shown). Cells were treated with 100 nM 12d for 6 h and then washed with PBS to remove remaining degraders. HDAC6 expression was monitored for 48 h. […] Selected degraders were also tested in other cell lines and they are effective among all tested cancer cell lines.
To support the involvement of ubiquitination-proteasome system for the decrease of HDAC6 protein level, the degrader was co-treated with binding competitors or pathway blockers. […] Moreover, it also confirmed the role of the pomalidomide moiety in modulating IKZFs. […] Additionally, proteasome inhibitor MG132 and Bortezomib were used to block the down-stream proteasome degradation. […] Acetylated tubulin level was suppressed as well. This confirms that HDAC6 degradation is responsible for the acetylation of its substrates rather than inhibition by the “warhead” moiety. To exclude the possible transcriptional impact by degraders, qRT-PCR was used to examine the mRNA level of HDAC6 and related genes (data not shown). […] This is consistent with the hypothesis that the cellular knockdown of HDAC6 is due to direct protein degradation, not by transcriptional downregulation. […]

[1] = 1 h pre-treatment, then 100 nM degrader 6 h, MM1S
[2] = 12d dose response 0.3 nM to 10 μM, MM1S

SMILES: CCCCN(Cc1ccc(C(=O)NO)cc1)C(=O)Nc1ccc(OCCCCCn2cc(CNc3cccc4c3C(=O)N(C3CCC(=O)NC3=O)C4=O)nn2)cc1 (centres unmarked) [Compound 12d, 4-((1-butyl-3-(4-((5-(4-(((2-(2,6-dioxopiperidin-3-yl)-1,3-dioxoisoindolin-4-yl)amino)methyl)-1H-1,2,3-triazol-1-yl)pentyl)oxy)phenyl)ureido)methyl)-N-hydroxybenzamide]
- HDAC6 recovery after wash-out (100 nM for 6 h, washed with PBS, monitored within 48 h): not fully recovered
- time at which HDAC6 degradation started (100 nM, MM1S): around 1 h
- time of maximal HDAC6 degradation effect (100 nM, MM1S): 4 h
- HDAC6 level on co-treatment with pomalidomide or Next-A [1]: recovered HDAC6 level
- degradation on co-treatment with NAE inhibitor MLN4924 [1]: abolishing the degradation of both HDAC6 and IKZFs
- degradation on co-treatment with proteasome inhibitor MG132 or Bortezomib [1]: no degradation of HDAC6
- concentration at which hook effect was observed [2]: ≥ 3 µM
- concentration of maximal effects on HDAC6 [2]: around 30 nM
- lowest concentration reducing HDAC6 protein content [2]: 3 nM

SMILES: O=C(CCCCCCC(=O)N/N=C/c1ccc(OCCOCCOCCn2cc(CNc3cccc4c3C(=O)N(C3CCC(=O)NC3=O)C4=O)nn2)cc1)NO (centres unmarked) [Compound 1]
- HDAC6 degradation by western blot (10 nM, 6 h, MM1S): degraded much less HDAC6

SMILES: CCCCN(Cc1ccc(C(=O)OC)cc1)C(=O)Nc1ccc(OCCCCCn2cc(CNc3cccc4c3C(=O)N(C3CCC(=O)NC3=O)C4=O)nn2)cc1 (centres unmarked) [Compound 13, Methyl 4-((1-butyl-3-(4-((5-(4-(((2-(2,6-dioxopiperidin-3-yl)-1,3-dioxoisoindolin-4-yl)amino)methyl)-1H-1,2,3-triazol-1-yl)pentyl)oxy)phenyl)ureido)methyl)benzoate]
- HDAC6 degradation activity of negative controls by western blot (MM1S): inactive; also recorded: limited HDAC6 degradation

SMILES: CCCCN(Cc1ccc(C(=O)NO)cc1)C(=O)Nc1ccc(OCCCCCn2cc(CNc3cccc4c3C(=O)N(C3CCC(=O)N(C)C3=O)C4=O)nn2)cc1 (centres unmarked) [Compound 15, 4-((1-butyl-3-(4-((5-(4-(((2-(1-methyl-2,6-dioxopiperidin-3-yl)-1,3-dioxoisoindolin-4-yl)amino)methyl)-1H-1,2,3-triazol-1-yl)pentyl)oxy)phenyl)ureido)methyl)-N-hydroxybenzamide]
- HDAC6 degradation activity of negative controls by western blot (MM1S): inactive

SMILES: CCCCN(Cc1ccc(C(=O)NO)cc1)C(=O)Nc1ccc(OCCCCCn2cc(CNc3cccc4c3C(=O)N(C3CCC(=O)NC3=O)C4=O)nn2)cc1 (centres unmarked) [Compound 2]
- time at which reduction of HDAC6 expression started (time-course, MM1S): 30 min
- time of maximal HDAC6 degradation (time-course, MM1S): around 4 h
